Results taken from patent publication US12691121B2, “Treatment of pulmonary arterial hypertension” (IMPERIAL COLLEGE INNOVATIONS LIMITED, priority 2020, dated 2026).
Like-named read-outs stand apart in the source and are kept apart here.

Legend:
[1] = system: human pulmonary microvascular endothelial cells (HPMEC); assay: DMOG-induced apoptosis in HPMEC; type: cell-based
Text: The effects of various TSPO ligands on HPMEC under DMOG (a permeable prolyl-4-hydroxylase inhibitor which upregulates hypoxia-inducible factor and causes apoptosis) stimulation were investigated.

SuHx rat = SuHx rat model: PAP, RV hypertrophy, systolic blood pressure; type: in vivo; conditions: SuHx rats, 2 mg/kg twice a day for two weeks
human TSPO [2] = target: human TSPO (Homo sapiens, UniProt P30536, T147A); conditions: human subjects with high-affinity binding of their TSPO; read-out: mean Kd, high affinity binders; cited from earlier work
human TSPO [3] = target: human TSPO (Homo sapiens, UniProt P30536); conditions: cited from earlier work
MCT rat [4] = assay: MCT rat PH model: pulmonary vascular remodelling and CD68+ macrophage infiltration (histology); type: in vivo
Protocol: Modulation of TSPO by XBD-173 was assessed in MCT rats. […] Heart and lung glucose metabolism were also assessed by FDG-PET imaging.

[5] = system: Human pulmonary artery smooth muscle cells (PASMCs); assay: PDGF- and hypoxia-stimulated proliferation of PASMCs; type: cell-based
TSPO = target: T1, TSPO (Rattus norvegicus, UniProt P16257); assay: 11C-PBR28 PET imaging, ligand specificity tested by XBD-173 pre-treatment; type: in vivo; conditions: rats treated with XBD-173 prior to PET imaging
T1 construct: from tissue; host or cells: lungs and right ventricle of living control and monocrotaline-treated rats (in vivo PET)
Protocol: PET imaging was performed in healthy control and MCT 4 weeks rats (60 mg/kg subcutaneous injection). The uptake of TSPO PET tracer, ^11C-PBR28, was measured in the lungs and RV.

HPAEC [6] = assay: Mitochondrial membrane potential in TNF-α stimulated HPAEC (TMRE); type: cell-based, human; conditions: 10 nM and 50 nM; P<0.001; recovering to levels similar to TNF-α untreated control
Protocol: (§1) Mitochondrial membrane potential was determined using 20 nM Tetramethylrhodamine, Ethyl Ester, Perchlorate (TMRE; Life technologies, T669). ROS production was detected using 5 uM CellROX Green (Life technologies, C10444). 1 ug/mL Hoechst 33342 (Life technologies, H1399) was added for nucleus staining. Images were obtained with a Zeiss Axio Observer inverted widefield microscope. […] In addition, XBD173 signifantly (P<0.001) increased the mitochondrial membrane potentials following TNF-α stimulation, with the mitochondrial membrane potentials with XBD173 treatment recovering to similar levels to those seen for the TNF-α untreated control.

MCT rat [7] = assay: MCT rat PH model: RV immunofluorescence (WGA cardiomyocyte size, CD31 micro-vessels); type: in vivo
Text: Bar charts illustrating the quantitative data from immunofluorescence staining. ***p<0.001.
Immunofluorescence staining was used to examine the RV structural changes. The cardiomyocyte size was quantified by wheat germ agglutinin (WGA) and the number of micro-vessels by CD31 at RV insertion point.

HPAEC [8] = assay: ROS production in TNF-α stimulated HPAEC (CellROX Green); type: cell-based, human; conditions: 10 nM and 50 nM; P<0.001; levels similar to TNF-α untreated control
Protocol: as §1

HPAECs = assay: TNF-α stimulated HPAEC activation: E-selectin ELISA and cytokine array; type: cell-based, human; conditions: 10 nM and 50 nM
Protocol: HPAECs were pre-treated with XBD173 (10 nM and 50 nM) for 24 hours before TNF-α (10 ng/ml) stimulation for 8 hours. At the end of the experiment, cell numbers were counted and cell culture supernatants collected (n=4 per group, control, TNF-α, TNF-α with XBD 10 nM and 50 nM treatments) for cytokine assay using the proteome profiler human cytokine array kit (R&D systems, ARY005B) and E-selectin ELISA assay. […] Further, XBD173 observably attenuated release of multiple cytokines and chemokines (CXCL-10, RANTES, IL-6, IL-21, IL-18, CXCL11, G-CSF and CXCL12) from HPAEC in response to TNF-α stimulation.

MCT rat [9] = assay: MCT rat PH model: MRI of RV structure and function; type: in vivo
MCT rat [10] = assay: MCT rat PH model: pulmonary arterial pressure, RVSP, RV hypertrophy, systemic blood pressure; type: in vivo
Protocol: Modulation of TSPO by XBD-173 was assessed in MCT rats. […] Heart and lung glucose metabolism were also assessed by FDG-PET imaging. […] This attenuation was dose-dependent manner. […] (data not shown).

[11] = 2 mg/Kg once and twice a day, 2-4 weeks

Chain of human TSPO (Homo sapiens, UniProt P30536, T147A) (P30536 2-169 T147A): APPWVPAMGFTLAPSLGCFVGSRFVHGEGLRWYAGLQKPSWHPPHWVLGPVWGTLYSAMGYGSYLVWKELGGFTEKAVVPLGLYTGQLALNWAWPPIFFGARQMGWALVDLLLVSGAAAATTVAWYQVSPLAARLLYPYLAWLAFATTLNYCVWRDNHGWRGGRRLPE

## CCNC1=Nc2ccc(Cl)cc2C(C)(c2ccccc2)O1 (stereo not drawn) [Etifoxine]
[1]; FIG. 12F, 10 uM
  DMOG-induced apoptotic effects in HPMECs: reversed

## CCOC(=O)C1=C[C@]2(CC)CCCN3CCc4c(n1c1ccccc41)[C@@H]32 [Vinpocetine]
[1]; FIG. 12C, 800 nM
  DMOG-induced apoptotic effects in HPMECs: reversed

## CC(=O)N(Cc1ccccc1O[11CH3])c1cnccc1Oc1ccccc1 [PBR28]
[1]; FIG. 12D, 5 nM
  DMOG-induced apoptotic effects in HPMECs: reversed

## CCN(Cc1ccccc1)C(=O)Cn1c(=O)n(C)c2cnc(-c3ccccc3)nc21 [XBD-173, N-Ethyl-7,8-dihydro-7-methyl-8-oxo-2-phenyl-N-(phenylmethyl)-9H-purine-9-acetamide]
SuHx rat
  RV hypertrophy: significant decrease
  pulmonary arterial pressure (PAP): significant decrease
  systemic blood pressure: no significant effect
Human TSPO [2]
  Kd: ~2.5 nM
Human TSPO [3]; human subjects with both high- and low-affinity binding sites, read-out: mean Kd, mixed affinity binders
  Kd: ~11 nM
Human TSPO [3]; human subjects with low-affinity binding of their TSPO, read-out: mean Kd, low affinity binders
  Kd: ~30 nM
MCT rat [4]; MCT rat lung
  inflammatory cell (CD68, macrophage) infiltration: attenuated
MCT rat [4]; MCT rat, 2 mg/Kg once and twice a day, 2-4 weeks, vs 75.24 untreated MCT
  pulmonary vascular remodelling (% of muscularised vessels): 53.57%
[5]; PDGF stimulus
  PDGF-stimulated proliferation of PASMCs: attenuated
[5]; hypoxia stimulus (O2=2%)
  hypoxia-stimulated proliferation of PASMCs: attenuated
TSPO
  PBR28 lung signals (11C-PBR28 PET): blocked
HPAEC [6]
  mitochondrial membrane potentials following TNF-α stimulation: increased
MCT rat [7]; MCT rat RV
  RV cardiomyocyte hypertrophy (myocyte size, WGA): attenuated
MCT rat [7]; MCT rat RV insertion point
  RV capillary density (CD31 micro-vessels): increased
HPAEC [8]
  ROS production following TNF-α stimulation: reduced
HPAECs; 24 hours pre-treatment, TNF-α 10 ng/ml 8 hours, P<0.05
  activation of HPAECs by TNF-α (E-selectin expression): reduced
HPAECs; TNF-α stimulation
  CXCL11 release: attenuated
  CXCL12 release: attenuated
  CXCL-10 release: attenuated
  G-CSF release: attenuated
  IL-6 release: attenuated
  IL-18 release: attenuated
  IL-21 release: attenuated
  RANTES release: attenuated
MCT rat [9]
  RV cardiac index (RVCI): restoring
  RV dilation (RV end diastolic volume index, RVEDVI): significantly reduced
  RV ejection fraction (RVEF): restoring
  RV hypertrophy as RV mass index (RVMI): reduced
  RV hypertrophy as ventricular mass index (VMI): reduced
  ventricular-vascular coupling (Ees/Ea): restoring
[1]; Example 4, FIG. 11
  DMOG-induced apoptotic effects in HPMECs: reversed
[1]; FIG. 12A, 10 nM, 50 nM and 100 nM
  DMOG-induced apoptotic effects in HPMECs: reversed
MCT rat [10]; [11]
  RV/body weight (RV/BW): attenuated
  RVSP (RV catheterisation): attenuated
MCT rat [10]; 2 mg/Kg once and twice a day, 2-4 weeks, vs 57.30 untreated MCT
  RVH (RV/LV+sp ratio, dissected heart tissue): 40.30
MCT rat [10]; 2 mg/Kg once and twice a day, treatment from 2 weeks to 4 weeks, vs 45.37 untreated MCT
  pulmonary arterial pressure (PAP): 27.23 mmHg
MCT rat [10]; data not shown
  systemic blood pressure: no significant effect

## CN1C(=O)CN=C(c2ccc(Cl)cc2)c2cc(Cl)ccc21 [Ro 5-4864]
[1]; FIG. 12E, 10 nM
  DMOG-induced apoptotic effects in HPMECs: reversed

## CCC(C)N(C)C(=O)c1cc2ccccc2c(-c2ccccc2Cl)n1 (stereo not drawn) [PK95111]
[1]; FIG. 12B, 3 nM, 30 nM and 300 nM
  DMOG-induced apoptotic effects in HPMECs: reversed
